# Reference: ChEMBL document CHEMBL1201862, “PubChem BioAssay data set” (2004)
#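 Step 1: Grow cells in 96-well plates. Step 2: Expose to compound for 48 hours at 5 concentrations. Step 3: Interpolate endpoints linearly; if unreached, use highest concentration. At the GI50, growth is halved.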 Activity calls are given as the source filed them. Cut-off read from the data, not from the text of the source: active = GI50 up to about 1.1 µM and inactive = higher.
# What was measured:
# Assay in all cases: NCI anticancer screen, dose series, 48 h
# SR = system: SR
# UACC-62 = system: UACC-62
# SK-MEL-5 = system: SK-MEL-5
# BT-549 = system: BT-549
# IGROV-1 = system: IGROV-1
# TK-10 = system: TK-10
# OVCAR-5 = system: OVCAR-5
# UO-31 = system: UO-31
# MCF7 = system: MCF7
# U-251 = system: U-251
# NCI-H23 = system: NCI-H23
# HOP-92 = system: HOP-92
# SK-OV-3 = system: SK-OV-3
# DU-145 = system: DU-145
# OVCAR-4 = system: OVCAR-4
# CAKI-1 = system: CAKI-1
# NCI/ADR-RES = system: NCI/ADR-RES
# SNB-19 = system: SNB-19
# EKVX = system: EKVX
# K562 = system: K562
# SK-MEL-28 = system: SK-MEL-28
# RPMI-8226 = system: RPMI-8226
# ACHN = system: ACHN
# HL-60 = system: HL-60
# LOX IMVI = system: LOX IMVI
# MDA-MB-231 = system: MDA-MB-231
# UACC-257 = system: UACC-257
# SF-539 = system: SF-539
# A498 = system: A498
# MDA-N = system: MDA-N
# HCT-116 = system: HCT-116
# OVCAR-3 = system: OVCAR-3
# HCC 2998 = system: HCC 2998
# SW-620 = system: SW-620
# MDA-MB-435 = system: MDA-MB-435
# M14 = system: M14
# CCRF-CEM = system: CCRF-CEM
# 786-0 = system: 786-0
# SF-268 = system: SF-268
# NCI-H522 = system: NCI-H522
# Malme-3M = system: Malme-3M
# SNB-75 = system: SNB-75
# COLO 205 = system: COLO 205
# NCI-H226 = system: NCI-H226
# MOLT-4 = system: MOLT-4
# Hs-578T = system: Hs-578T
# A549 = system: A549
# HCT-15 = system: HCT-15
# OVCAR-8 = system: OVCAR-8
# SK-MEL-2 = system: SK-MEL-2
# PC-3 = system: PC-3
# KM12 = system: KM12
# HT-29 = system: HT-29
# NCI-H460 = system: NCI-H460
# SN12C = system: SN12C
# T47D = system: T47D
# SF-295 = system: SF-295
# RXF 393 = system: RXF 393
# HOP-62 = system: HOP-62
smiles,measurement,setting,value
O=C(Cc1ccccc1)N/N=C(/CCN1CCCC1)CC(c1ccccc1)c1c(O)c2ccccc2oc1=O (centres undefined),GI50,SR,21.4 µM (inactive)
same,GI50,UACC-62,63.7 µM (inactive)
same,GI50,SK-MEL-5,> 100 µM (inactive)
same,GI50,BT-549,83.4 µM (inactive)
same,GI50,IGROV-1,> 100 µM (inactive)
same,GI50,TK-10,> 100 µM (inactive)
same,GI50,OVCAR-5,> 100 µM (inactive)
same,GI50,UO-31,> 100 µM (inactive)
same,GI50,MCF7,22 µM (inactive)
same,GI50,U-251,> 100 µM (inactive)
same,GI50,NCI-H23,55.7 µM (inactive)
same,GI50,HOP-92,31.6 µM (inactive)
same,GI50,SK-OV-3,> 100 µM (inactive)
same,GI50,DU-145,> 100 µM (inactive)
same,GI50,OVCAR-4,> 100 µM (inactive)
same,GI50,CAKI-1,> 100 µM (inactive)
same,GI50,NCI/ADR-RES,55.8 µM (inactive)
same,GI50,SNB-19,> 100 µM (inactive)
same,GI50,EKVX,> 100 µM (inactive)
same,GI50,K562,> 100 µM (inactive)
same,GI50,SK-MEL-28,> 100 µM (inactive)
same,GI50,RPMI-8226,39.7 µM (inactive)
same,GI50,ACHN,> 100 µM (inactive)
same,GI50,HL-60,39.8 µM (inactive)
same,GI50,LOX IMVI,17.3 µM (inactive)
same,GI50,MDA-MB-231,26 µM (inactive)
same,GI50,UACC-257,37.2 µM (inactive)
same,GI50,SF-539,> 100 µM (inactive)
same,GI50,A498,28 µM (inactive)
same,GI50,MDA-N,> 100 µM (inactive)
same,GI50,HCT-116,80.2 µM (inactive)
same,GI50,OVCAR-3,> 100 µM (inactive)
same,GI50,HCC 2998,95.1 µM (inactive)
same,GI50,SW-620,> 100 µM (inactive)
same,GI50,MDA-MB-435,> 100 µM (inactive)
same,GI50,M14,> 100 µM (inactive)
same,GI50,CCRF-CEM,48.9 µM (inactive)
same,GI50,786-0,> 100 µM (inactive)
same,GI50,SF-268,> 100 µM (inactive)
same,GI50,NCI-H522,59 µM (inactive)
same,GI50,Malme-3M,57.4 µM (inactive)
same,GI50,SNB-75,> 100 µM (inactive)
same,GI50,COLO 205,23.9 µM (inactive)
same,GI50,NCI-H226,> 100 µM (inactive)
same,GI50,MOLT-4,46.6 µM (inactive)
same,GI50,Hs-578T,76.7 µM (inactive)
same,GI50,A549,> 100 µM (inactive)
same,GI50,HCT-15,72.4 µM
same,GI50,OVCAR-8,> 100 µM (inactive)
same,GI50,SK-MEL-2,> 100 µM (inactive)
same,GI50,PC-3,> 100 µM (inactive)
same,GI50,KM12,> 100 µM (inactive)
same,GI50,HT-29,75.9 µM (inactive)
O=c1ccn(C2OC(CO)C(O)C2F)c(=O)n1Cc1ccccc1 (centres undefined),GI50,SR,> 100 µM (inactive)
same,GI50,UACC-62,> 100 µM (inactive)
same,GI50,SK-MEL-5,> 100 µM (inactive)
same,GI50,IGROV-1,> 100 µM (inactive)
same,GI50,TK-10,> 100 µM (inactive)
same,GI50,OVCAR-5,> 100 µM (inactive)
same,GI50,UO-31,> 100 µM (inactive)
same,GI50,MCF7,> 100 µM (inactive)
same,GI50,U-251,> 100 µM (inactive)
same,GI50,NCI-H460,> 10 µM (inactive)
same,GI50,SN12C,> 100 µM (inactive)
same,GI50,NCI-H23,> 100 µM (inactive)
same,GI50,DU-145,> 100 µM (inactive)
same,GI50,CAKI-1,> 100 µM (inactive)
same,GI50,NCI/ADR-RES,> 100 µM (inactive)
same,GI50,SNB-19,> 100 µM (inactive)
same,GI50,EKVX,> 100 µM (inactive)
same,GI50,K562,> 100 µM (inactive)
same,GI50,SK-MEL-28,> 100 µM (inactive)
same,GI50,RPMI-8226,> 100 µM (inactive)
same,GI50,ACHN,> 100 µM (inactive)
same,GI50,HL-60,> 100 µM (inactive)
same,GI50,LOX IMVI,> 100 µM (inactive)
same,GI50,MDA-MB-231,> 100 µM (inactive)
same,GI50,UACC-257,> 100 µM (inactive)
same,GI50,SF-539,> 100 µM (inactive)
same,GI50,MDA-N,> 100 µM (inactive)
same,GI50,T47D,> 100 µM (inactive)
same,GI50,HCT-116,> 100 µM (inactive)
same,GI50,OVCAR-3,> 100 µM (inactive)
same,GI50,SW-620,> 100 µM (inactive)
same,GI50,MDA-MB-435,> 100 µM (inactive)
same,GI50,CCRF-CEM,> 100 µM (inactive)
same,GI50,786-0,> 100 µM (inactive)
same,GI50,SF-268,> 100 µM (inactive)
same,GI50,SF-295,> 100 µM (inactive)
same,GI50,NCI-H522,> 100 µM (inactive)
same,GI50,Malme-3M,> 100 µM (inactive)
same,GI50,SNB-75,> 100 µM (inactive)
same,GI50,RXF 393,> 100 µM (inactive)
same,GI50,COLO 205,> 100 µM (inactive)
same,GI50,NCI-H226,> 100 µM (inactive)
same,GI50,MOLT-4,> 100 µM (inactive)
same,GI50,Hs-578T,> 100 µM (inactive)
same,GI50,A549,> 100 µM (inactive)
same,GI50,HOP-62,> 100 µM (inactive)
same,GI50,HCT-15,> 100 µM
same,GI50,OVCAR-8,> 100 µM (inactive)
same,GI50,PC-3,> 100 µM (inactive)
same,GI50,KM12,> 100 µM (inactive)
same,GI50,HT-29,> 100 µM (inactive)
